Laboratory results published in patent publication US20240218022A1, “ANTI-VISTA MACROCYCLIC PEPTIDES AND COMPOSITIONS” (BRISTOL-MYERS SQUIBB COMPANY, priority 2022, published 2024).
Like-named read-outs stand apart in the source and are kept apart here. Starred links: 1 amine or outer side, 2 acyl side, 3 side chain; linkers in the order of their positions; H or OH if unused. Positions of bridges follow the written chain, without caps; N, C: chain ends. Non-standard residues stand in square brackets, D forms with d. Residues, ends and D or L forms follow the SMILES beside them. ξ: configuration not given here. γGlu = O=C(O)[C@H](CCC(=O)[*:2])N[*:1]; 2Nal = N[C@@H](Cc1ccc2ccccc2c1)C(=O)O; βAsp = O=C(O)[C@H](CC(=O)[*:2])N[*:1]; Ahp(2) = CCCCC[C@H](N)C(=O)O; NMeNle = CCCC[C@H](NC)C(=O)O; Tle = CC(C)(C)[C@H](N)C(=O)O; NHexGly = CCCCCCNCC(=O)O; Nle = CCCC[C@H](N)C(=O)O; Orn = NCCC[C@H](N)C(=O)O; Aun = NCCCCCCCCCCC(=O)O; AEEA = NCCOCCOCC(=O)O; ξP = O=C(O)C1CCCN1

Target: T1, mouse VISTA (mVISTA) (Mus musculus, UniProt Q9D659)
T1 construct: expressed in transfected cells; host or cells: Human embryonic kidney 293T cells
T1 sequence (Q9D659 33-308): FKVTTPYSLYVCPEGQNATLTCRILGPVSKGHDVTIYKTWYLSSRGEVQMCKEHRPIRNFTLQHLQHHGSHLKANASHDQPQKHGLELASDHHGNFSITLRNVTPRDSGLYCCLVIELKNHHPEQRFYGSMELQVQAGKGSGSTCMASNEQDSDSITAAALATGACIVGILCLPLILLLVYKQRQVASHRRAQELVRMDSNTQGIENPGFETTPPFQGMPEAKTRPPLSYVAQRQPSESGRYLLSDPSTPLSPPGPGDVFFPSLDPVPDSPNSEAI
Test: Cell-Based Binding High-Content Assay For mVISTA (HC CBA mVISTA)
Procedure, shortened: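 mVISTA-293T, 4,000 cells/well; cpd ± washout step; biotin-peptide 2 nM final, 30 min RT; SA-Alexa 647 30 min; formaldehyde/Hoechst fix; HCS imaging; 4PL IC50.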

[1] = cell-based binding high-content assay, mVISTA, read-out: HC CBA miPrISTA IC50

| Structure (SMILES) | IC50 [1] | IC50 (read-out: HC CBA mVISTA IC50) |
| --- | --- | --- |
| CCCCCCN1CC(=O)N[C@@H](Cc2ccc(O)cc2)C(=O)N[C@@H](CCCC)C(=O)N[C@@H](CC(=O)O)C(=O)N[C@@H](CCCNC(=N)N)C(=O)N[C@@H](CC(C)C)C(=O)N[C@@H](CCCCC)C(=O)N2CCCC2C(=O)N[C@@H](C(C)C)C(=O)N[C@@H](CC(N)=O)C(=O)N[C@H](C(=O)NCC(=O)N[C@@H](CC(=O)NCCOCCOCC(=O)N[C@@H](CC(=O)O)C(=O)NCCOCCOCC(=O)NCCCCCCCCCCC(=O)O)C(=O)O)CSCC(=O)N[C@@H](Cc2ccccc2)C(=O)N[C@@H](Cc2ccc(O)cc2)C(=O)N[C@@H](CC(=O)O)C1=O (stereo partly drawn) [compound 2108] ({CH2CO}-FYD[NHexGly]Y[Nle]DRL[Ahp(2)][ξP]VNCG[βAsp][AEEA]D[AEEA][Aun]-OH; thioether N-14) |  | 0.0144 µM |
| CCCCCCN1CC(=O)N[C@@H](Cc2ccc(O)cc2)C(=O)N[C@@H](CCCC)C(=O)N[C@@H](CC(N)=O)C(=O)N[C@@H](CCCNC(=N)N)C(=O)N[C@@H](CC(C)C)C(=O)N[C@@H](CCCCC)C(=O)N2CCC[C@@H]2C(=O)N[C@@H](C(C)C)C(=O)N[C@@H](CO)C(=O)N[C@H](C(=O)NCC(=O)N[C@@H](CCC(=O)NCCOCCOCC(=O)N[C@@H](CC(=O)O)C(=O)NCCOCCOCC(=O)NCCCCCCCCCCC(=O)O)C(=O)O)CSCC(=O)N[C@@H](Cc2ccc3ccccc3c2)C(=O)N[C@@H](Cc2ccc(O)cc2)C(=O)N[C@@H](CC(=O)O)C1=O [compound 2123] ({CH2CO}-[2Nal]YD[NHexGly]Y[Nle]NRL[Ahp(2)][dP]VSCG[γGlu][AEEA]D[AEEA][Aun]-OH; thioether N-14) |  | 0.0179 µM |
| CCCCCCN1CC(=O)N[C@@H](Cc2ccc(O)cc2)C(=O)N[C@@H](CCCC)C(=O)N[C@@H](CC(N)=O)C(=O)N[C@@H](CCCNC(=N)N)C(=O)N(C)[C@@H](CCCC)C(=O)N[C@@H](CCCCC)C(=O)N2CCCC2C(=O)N[C@@H](C(C)C)C(=O)N[C@@H](CC(=O)O)C(=O)N[C@H](C(=O)NCC(=O)N[C@@H](CCC(=O)NCCOCCOCC(=O)N[C@@H](CC(=O)O)C(=O)NCCOCCOCC(=O)NCCCCCCCCCCC(=O)O)C(=O)O)CSCC(=O)N[C@@H](Cc2ccc3ccccc3c2)C(=O)N[C@@H](Cc2c[nH]c3ccccc23)C(=O)N[C@@H](CC(=O)O)C1=O (stereo partly drawn) [compound 2125] ({CH2CO}-[2Nal]WD[NHexGly]Y[Nle]NR[NMeNle][Ahp(2)][ξP]VDCG[γGlu][AEEA]D[AEEA][Aun]-OH; thioether N-14) |  | 0.0196 µM |
| CCCCCCN1CC(=O)N[C@@H](Cc2ccc(O)cc2)C(=O)N[C@@H](CCCC)C(=O)N[C@@H](CC(N)=O)C(=O)N[C@@H](CCCNC(=N)N)C(=O)N(C)[C@@H](CCCC)C(=O)N[C@@H](CCCCC)C(=O)N2CCC[C@H]2C(=O)N[C@@H](C(C)C)C(=O)N[C@@H](CC(=O)O)C(=O)N[C@H](C(=O)NCCOCCOCC(=O)N[C@@H](CCC(=O)NCCOCCOCC(=O)NCCCCCCCCCCC(=O)O)C(=O)O)CSCC(=O)N[C@@H](Cc2ccc3ccccc3c2)C(=O)N[C@@H](Cc2c[nH]c3ccccc23)C(=O)N[C@@H](CC(=O)O)C1=O [compound 2214] ({CH2CO}-[2Nal]WD[NHexGly]Y[Nle]NR[NMeNle][Ahp(2)]PVDC[AEEA][γGlu][AEEA][Aun]-OH; thioether N-14) |  | 0.0327 µM |
| CCCCCCN1CC(=O)N[C@@H](Cc2ccc(O)cc2)C(=O)N[C@@H](CCCCC)C(=O)NCC(=O)N[C@@H](CCCNC(=N)N)C(=O)N[C@@H](CC(C)C)C(=O)N[C@@H](CCCCC)C(=O)N2CCC[C@H]2C(=O)N[C@@H](C(C)C)C(=O)N[C@@H](CO)C(=O)N[C@H](C(=O)NCCOCCOCC(=O)N[C@@H](CCC(=O)NCCOCCOCC(=O)NCCCCCCCCCCC(=O)O)C(=O)O)CSCC(=O)N[C@@H](Cc2ccccc2)C(=O)N[C@@H](Cc2ccc(O)cc2)C(=O)N[C@@H](CC(=O)O)C1=O [compound 2215] ({CH2CO}-FYD[NHexGly]Y[Ahp(2)]GRL[Ahp(2)]PVSC[AEEA][γGlu][AEEA][Aun]-OH; thioether N-14) |  | 0.0283 µM |

Next, values leading:

| IC50 [1] | IC50 (read-out: HC CBA mVISTA IC50) | Structure (SMILES) |
| --- | --- | --- |
| 0.0501 µM |  | CCCCCCN1CC(=O)N[C@@H](Cc2ccc(O)cc2)C(=O)N[C@@H](C)C(=O)N[C@@H](CC(N)=O)C(=O)N[C@@H](CCCN)C(=O)N(C)[C@@H](CCCC)C(=O)N[C@@H](CCCCC)C(=O)N2CCC[C@H]2C(=O)N[C@@H](C(C)(C)C)C(=O)N[C@@H](CC(=O)O)C(=O)N[C@H](C(=O)N[C@@H](CC(=O)NCCOCCOCC(=O)N[C@@H](CC(=O)O)C(=O)NCCOCCOCC(=O)NCCCCCCCCCCC(=O)O)C(=O)O)CSCC(=O)N[C@@H](Cc2ccccc2)C(=O)N[C@@H](Cc2ccc(O)cc2)C(=O)N[C@@H](CC(=O)O)C1=O [compound 2095] ({CH2CO}-FYD[NHexGly]YAN[Orn][NMeNle][Ahp(2)]P[Tle]DC[βAsp][AEEA]D[AEEA][Aun]-OH; thioether N-14) |
| 0.02 µM |  | CCCCCCN1CC(=O)N[C@@H](Cc2ccc(O)cc2)C(=O)N[C@@H](C)C(=O)N[C@@H](CC(N)=O)C(=O)N[C@@H](CCCNC(=N)N)C(=O)N(C)[C@@H](CCCC)C(=O)N[C@@H](CCCCC)C(=O)N2CCC[C@H]2C(=O)N[C@@H](C(C)(C)C)C(=O)N[C@@H](CC(=O)O)C(=O)N[C@H](C(=O)N[C@@H](CC(=O)NCCOCCOCC(=O)N[C@@H](CC(=O)O)C(=O)NCCOCCOCC(=O)NCCCCCCCCCCC(=O)O)C(=O)O)CSCC(=O)N[C@@H](Cc2ccccc2)C(=O)N[C@@H](Cc2ccc(O)cc2)C(=O)N[C@@H](CC(=O)O)C1=O [compound 2096] ({CH2CO}-FYD[NHexGly]YANR[NMeNle][Ahp(2)]P[Tle]DC[βAsp][AEEA]D[AEEA][Aun]-OH; thioether N-14) |
| 0.0222 µM |  | CCCCCCN1CC(=O)N[C@@H](Cc2ccc(O)cc2)C(=O)N[C@@H](C)C(=O)N[C@@H](CC(N)=O)C(=O)N[C@@H](CCCN)C(=O)N(C)[C@@H](CCCC)C(=O)N[C@@H](CCCCC)C(=O)N2CCC[C@H]2C(=O)N[C@@H](C(C)(C)C)C(=O)N[C@@H](CC(=O)O)C(=O)N[C@H](C(=O)N[C@@H](CC(=O)NCCOCCOCC(=O)N[C@@H](CC(=O)O)C(=O)NCCOCCOCC(=O)NCCCCCCCCCCC(=O)O)C(=O)O)CSCC(=O)N[C@@H](Cc2ccccc2)C(=O)N[C@@H](Cc2c[nH]c3ccccc23)C(=O)N[C@@H](CC(=O)O)C1=O [compound 2097] ({CH2CO}-FWD[NHexGly]YAN[Orn][NMeNle][Ahp(2)]P[Tle]DC[βAsp][AEEA]D[AEEA][Aun]-OH; thioether N-14) |
| 0.0366 µM |  | CCCCCCN1CC(=O)N[C@@H](Cc2ccc(O)cc2)C(=O)N[C@@H](C)C(=O)N[C@@H](CC(N)=O)C(=O)N[C@@H](CCCNC(=N)N)C(=O)N(C)[C@@H](CCCC)C(=O)N[C@@H](CCCCC)C(=O)N2CCC[C@H]2C(=O)N[C@@H](C(C)(C)C)C(=O)N[C@@H](CO)C(=O)N[C@H](C(=O)N[C@@H](CC(=O)NCCOCCOCC(=O)N[C@@H](CC(=O)O)C(=O)NCCOCCOCC(=O)NCCCCCCCCCCC(=O)O)C(=O)O)CSCC(=O)N[C@@H](Cc2ccccc2)C(=O)N[C@@H](Cc2c[nH]c3ccccc23)C(=O)N[C@@H](CC(=O)O)C1=O [compound 2098] ({CH2CO}-FWD[NHexGly]YANR[NMeNle][Ahp(2)]P[Tle]SC[βAsp][AEEA]D[AEEA][Aun]-OH; thioether N-14) |
